Reference: the supplement of paper PMC6045584
± gives the standard deviation of the averaged measurements.

Key:
MDV3100 = compound: CNC(=O)c1ccc(N2C(=S)N(c3ccc(C#N)c(C(F)(F)F)c3)C(=O)C2(C)C)cc1F [MDV3100]; test: surviving fraction relative to DMSO-only wells; higher = less growth inhibition; details: exposure time: 5 days
Outline: (§1)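 Viability values are CellTiter-Glo luminescence readings, given as surviving fraction against the median of DMSO-only wells. The readings were taken after 10 minutes at room temperature, following five days of continuous exposure to inhibitors at 0.5, 1, 5, 10, 50, 100, 500 and 1000 nM that began 24 hours after log-phase tumour cell lines were seeded at 250–500 cells per well in 384-well plates. Every line was screened three times and kept only if replicate Pearson r >0.7 and median Z' >0.3.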

CANERTINIB = compound: C=CC(=O)Nc1cc2c(Nc3ccc(F)c(Cl)c3)ncnc2cc1OCCCN1CCOCC1 [CANERTINIB]; test: as above; details: exposure time: 5 days
Outline: as §1

| Test System | surviving fraction (MDV3100; 0.5 nM) | surviving fraction (MDV3100; 1 nM) | surviving fraction (MDV3100; 5 nM) | surviving fraction (MDV3100; 10 nM) | surviving fraction (MDV3100; 50 nM) | surviving fraction (MDV3100; 100 nM) | surviving fraction (MDV3100; 500 nM) | surviving fraction (MDV3100; 1000 nM) | surviving fraction (CANERTINIB; 0.5 nM) | surviving fraction (CANERTINIB; 1 nM) | surviving fraction (CANERTINIB; 5 nM) | surviving fraction (CANERTINIB; 10 nM) | surviving fraction (CANERTINIB; 50 nM) | surviving fraction (CANERTINIB; 100 nM) | surviving fraction (CANERTINIB; 500 nM) | surviving fraction (CANERTINIB; 1000 nM) |
| --- | --- | --- | --- | --- | --- | --- | --- | --- | --- | --- | --- | --- | --- | --- | --- | --- |
| MG63 BONE | 0.988 ± 0.0044 | 0.953 ± 0.026 | 1.01 ± 0.015 | 0.999 ± 0.028 | 1.02 ± 0.013 | 1.02 ± 0.019 | 0.968 ± 0.03 | 0.931 ± 0.011 | 0.947 ± 0.015 | 0.919 ± 0.016 | 0.9893 ± 0.007 | 0.971 ± 0.013 | 1.02 ± 0.014 | 1.02 ± 0.011 | 0.993 ± 0.025 | 1 ± 0.022 |
| JIMT1 BREAST | 0.964 ± 0.025 | 0.9673 ± 0.007 | 1.01 ± 0.02 | 0.983 ± 0.02 | 1.04 ± 0.048 | 1.07 ± 0.076 | 1.05 ± 0.055 | 0.982 ± 0.025 | 0.896 ± 0.02 | 0.904 ± 0.029 | 0.94 ± 0.029 | 0.911 ± 0.021 | 0.968 ± 0.021 | 0.897 ± 0.042 | 0.633 ± 0.041 | 0.541 ± 0.042 |
| BT549 BREAST | 0.957 ± 0.078 | 1.02 ± 0.089 | 1 ± 0.11 | 0.939 ± 0.0099 | 1.01 ± 0.036 | 0.996 ± 0.099 | 0.992 ± 0.076 | 0.98 ± 0.057 | 0.752 ± 0.037 | 0.886 ± 0.18 | 0.832 ± 0.08 | 0.808 ± 0.042 | 0.937 ± 0.18 | 1.08 ± 0.052 | 0.811 ± 0.072 | 0.47 ± 0.058 |
| HMLE3 BREAST | 0.981 ± 0.05 | 0.951 ± 0.018 | 0.984 ± 0.026 | 0.946 ± 0.049 | 0.975 ± 0.12 | 1 ± 0.09 | 0.98 ± 0.058 | 1.03 ± 0.083 | 0.883 ± 0.0092 | 0.909 ± 0.082 | 0.891 ± 0.044 | 0.898 ± 0.018 | 0.913 ± 0.024 | 0.838 ± 0.14 | 0.847 ± 0.028 | 0.872 ± 0.1 |
| SG43 HEADNECK | 0.866 ± 0.21 | 1.01 ± 0.25 | 0.913 ± 0.11 | 0.952 ± 0.14 | 0.702 ± 0.11 | 0.998 ± 0.28 | 1.17 ± 0.06 | 1.16 ± 0.065 | 1.05 ± 0.074 | 1.06 ± 0.1 | 0.772 ± 0.21 | 0.816 ± 0.14 | 0.387 ± 0.23 | 0.223 ± 0.027 | 0.265 ± 0.05 | 0.183 ± 0.0075 |
| HELA CERVIX | 0.931 ± 0.035 | 0.923 ± 0.0096 | 0.929 ± 0.023 | 0.888 ± 0.036 | 0.999 ± 0.034 | 1.02 ± 0.065 | 1.08 ± 0.069 | 1.03 ± 0.047 | 0.9167 ± 0.0022 | 0.8778 ± 0.0083 | 0.888 ± 0.024 | 0.865 ± 0.023 | 1.04 ± 0.084 | 0.979 ± 0.074 | 1.02 ± 0.074 | 1 ± 0.039 |
| SG27 HEADNECK | 1.064 ± 0.0067 | 1.01 ± 0.12 | 1.07 ± 0.13 | 0.935 ± 0.091 | 1.09 ± 0.04 | 1.19 ± 0.081 | 1.21 ± 0.2 | 1.17 ± 0.19 | 1.03 ± 0.15 | 1.06 ± 0.054 | 1.03 ± 0.067 | 0.883 ± 0.1 | 1.01 ± 0.1 | 0.999 ± 0.028 | 0.96 ± 0.13 | 0.894 ± 0.08 |
| CAL72 BONE | 0.965 ± 0.087 | 0.992 ± 0.041 | 1 ± 0.073 | 1 ± 0.021 | 1.08 ± 0.076 | 0.986 ± 0.17 | 1.05 ± 0.13 | 1.02 ± 0.15 | 0.982 ± 0.056 | 0.989 ± 0.067 | 0.979 ± 0.058 | 0.969 ± 0.052 | 1.02 ± 0.2 | 1.11 ± 0.037 | 1.03 ± 0.1 | 1.08 ± 0.053 |
| SG31 HEADNECK | 0.928 ± 0.059 | 1.06 ± 0.037 | 1.01 ± 0.14 | 1.02 ± 0.14 | 1.07 ± 0.057 | 0.969 ± 0.17 | 1.18 ± 0.18 | 1.06 ± 0.028 | 0.935 ± 0.084 | 0.907 ± 0.035 | 0.811 ± 0.043 | 0.688 ± 0.15 | 0.63 ± 0.12 | 0.581 ± 0.086 | 0.588 ± 0.045 | 0.498 ± 0.1 |
| MDAMB157 BREAST | 0.935 ± 0.093 | 0.954 ± 0.071 | 0.933 ± 0.049 | 1.01 ± 0.079 | 0.927 ± 0.077 | 0.952 ± 0.071 | 0.853 ± 0.044 | 0.866 ± 0.097 | 0.847 ± 0.035 | 0.86 ± 0.088 | 0.858 ± 0.048 | 0.936 ± 0.049 | 0.921 ± 0.067 | 0.844 ± 0.089 | 0.753 ± 0.013 | 0.658 ± 0.051 |
| ZR751 BREAST | 1.12 ± 0.16 | 1.14 ± 0.1 | 1.04 ± 0.042 | 1.04 ± 0.043 | 1.17 ± 0.1 | 1.12 ± 0.076 | 1.22 ± 0.1 | 1.08 ± 0.079 | 0.993 ± 0.042 | 0.957 ± 0.044 | 0.948 ± 0.052 | 0.957 ± 0.093 | 0.802 ± 0.026 | 0.77 ± 0.062 | 0.648 ± 0.052 | 0.618 ± 0.029 |
| CHLA90 AUTONOMIC GANGLIA | 0.946 ± 0.11 | 0.812 ± 0.07 | 0.878 ± 0.077 | 0.362 ± 0.028 | 1 ± 0.078 | 0.94 ± 0.12 | 1 ± 0.076 | 0.625 ± 0.14 | 0.869 ± 0.021 | 0.876 ± 0.083 | 0.744 ± 0.072 | 0.704 ± 0.03 | 0.812 ± 0.08 | 0.761 ± 0.057 | 0.684 ± 0.045 | 0.643 ± 0.062 |
| OS25HAL BONE | 0.968 ± 0.03 | 0.932 ± 0.015 | 0.962 ± 0.018 | 0.959 ± 0.011 | 1.06 ± 0.013 | 1.06 ± 0.03 | 1.04 ± 0.026 | 1.01 ± 0.057 | 0.898 ± 0.0053 | 0.879 ± 0.013 | 0.886 ± 0.003 | 0.893 ± 0.042 | 1.014 ± 0.0056 | 1.03 ± 0.019 | 1.01 ± 0.072 | 0.981 ± 0.092 |
| COLO320DM LARGE INTESTINE | 1.18 ± 0.14 | 0.995 ± 0.087 | 1.13 ± 0.022 | 0.533 ± 0.021 | 1.13 ± 0.086 | 1.042 ± 0.0052 | 1.12 ± 0.057 | 0.754 ± 0.052 | 1.14 ± 0.076 | 1.15 ± 0.042 | 1.04 ± 0.062 | 1.05 ± 0.06 | 1.11 ± 0.084 | 1.04 ± 0.047 | 0.893 ± 0.032 | 0.66 ± 0.018 |
| OSHN BONE | 1.04 ± 0.02 | 1.02 ± 0.019 | 1.025 ± 0.0047 | 1.01 ± 0.015 | 1.067 ± 0.0085 | 1.07 ± 0.04 | 1.07 ± 0.026 | 1.041 ± 0.0068 | 0.898 ± 0.036 | 0.904 ± 0.028 | 0.932 ± 0.035 | 0.91 ± 0.019 | 1.03 ± 0.043 | 1.03 ± 0.016 | 1.02 ± 0.0035 | 1.03 ± 0.028 |
| SIHA CERVIX | 0.88 ± 0.024 | 0.824 ± 0.067 | 0.999 ± 0.038 | 0.97 ± 0.057 | 1.01 ± 0.076 | 0.975 ± 0.043 | 0.875 ± 0.086 | 0.844 ± 0.055 | 0.897 ± 0.035 | 0.809 ± 0.04 | 0.978 ± 0.023 | 0.867 ± 0.049 | 0.951 ± 0.14 | 0.977 ± 0.055 | 0.871 ± 0.027 | 0.727 ± 0.027 |
| HCC1954 BREAST | 1.12 ± 0.018 | 0.975 ± 0.18 | 1.17 ± 0.19 | 1.25 ± 0.25 | 0.919 ± 0.077 | 0.909 ± 0.017 | 0.9483 ± 0.0088 | 0.771 ± 0.012 | 0.376 ± 0.025 | 0.336 ± 0.0092 | 0.382 ± 0.014 | 0.316 ± 0.014 | 0.263 ± 0.011 | 0.258 ± 0.015 | 0.136 ± 0.016 | 0.117 ± 0.0071 |
